Test results from PubChem BioAssay AID248 (DTP/NCI, 2004).
Values joined by “and” are separate entries in the source; they are usually repeats but may differ in a detail not shown here. Equal entries are not always repeated. Inconclusive results and toxic doses are left out. Rule as the data show it: active = T/C of 150% or more; inactive = T/C below 125%.

System: L1210 leukemia ip in BDF1 mice, survival T/C
Assay: NCI In Vivo Anticancer Drug Screen. Data for tumor model L1210 Leukemia (intraperitoneal) in B6D2F1 (BDF1) mice
Conditions: higher = longer survival
In short: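 Tumor cells were implanted, animals were treated, and survival was followed. The result divides the treated measurement by the vehicle-control measurement.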

[1] = endpoint: mean survival time, dose: 100.0 mg/kg/injection, schedule: Q01DX001 (ip), vehicle: saline
[2] = endpoint: mean survival time, dose: 100.0 mg/kg/injection, schedule: Q01DX009 (ip), vehicle: saline
[3] = endpoint: mean survival time, dose: 100.0 mg/kg/injection, schedule: Q04DX003 (ip), vehicle: saline
[4] = endpoint: mean survival time, dose: 200.0 mg/kg/injection, schedule: Q01DX001 (ip), vehicle: saline
[5] = endpoint: mean survival time, dose: 200.0 mg/kg/injection, schedule: Q01DX009 (ip), vehicle: saline
[6] = endpoint: mean survival time, dose: 200.0 mg/kg/injection, schedule: Q04DX003 (ip), vehicle: saline
[7] = endpoint: mean survival time, dose: 400.0 mg/kg/injection, schedule: Q01DX001 (ip), vehicle: saline
[8] = endpoint: mean survival time, dose: 400.0 mg/kg/injection, schedule: Q01DX009 (ip), vehicle: saline
[9] = endpoint: mean survival time, dose: 400.0 mg/kg/injection, schedule: Q04DX003 (ip), vehicle: saline
[10] = endpoint: mean survival time, dose: 12.5 mg/kg/injection, schedule: Q04DX002 (ip), vehicle: saline with Tween-80
[11] = endpoint: mean survival time, dose: 25.0 mg/kg/injection, schedule: Q04DX002 (ip), vehicle: saline with Tween-80
[12] = endpoint: mean survival time, dose: 50.0 mg/kg/injection, schedule: Q04DX002 (ip), vehicle: saline with Tween-80

Measured: T/C

COC(=O)c1csc(-c2csc(CCN)n2)n1
inactive: [1] 102 % of control | [2] 100 % of control | [3] 95 % of control | [4] 98 % of control | [5] 98 % of control | [6] 98 % of control | [7] 101 % of control | [8] 89 % of control | [9] 103 % of control

CC(I)CNc1ccc(C(=O)O)c(O)c1 (configuration not stated)
inactive: endpoint: mean survival time, dose: 100.0 mg/kg/injection, schedule: Q04DX003 (ip), vehicle: gum acacia 97 % of control | endpoint: mean survival time, dose: 200.0 mg/kg/injection, schedule: Q04DX003 (ip), vehicle: gum acacia 89 % of control | endpoint: mean survival time, dose: 400.0 mg/kg/injection, schedule: Q04DX003 (ip), vehicle: gum acacia 94 % of control

CCC1(C(C)Br)OC2=C(CC(C#N)(C#N)C(C#N)(C#N)C2)O1 (configuration not stated)
inactive: endpoint: mean survival time, dose: 25.0 mg/kg/injection, schedule: Q01DX009 (ip), vehicle: other 100 % of control | endpoint: mean survival time, dose: 50.0 mg/kg/injection, schedule: Q01DX009 (ip), vehicle: saline 87 % of control | endpoint: mean survival time, dose: 75.0 mg/kg/injection, schedule: Q01DX001 (ip), vehicle: saline 100 % of control | endpoint: mean survival time, dose: 75.0 mg/kg/injection, schedule: Q01DX009 (ip), vehicle: other 87 % of control

O=[N+]([O-])c1ccc(C=Nc2ccc([N+](=O)[O-])cc2)cc1
inactive: [3] 90 % of control | [6] 86 % of control | [9] 93 % of control

CNC(=O)c1c2c(nc3ccccc13)CCCC2
inactive: [1] 102 % of control | [4] 102 % of control | [7] 111 % of control

COCCCN=C(N)C(N)=NCCCOC
inactive: [2] 99 % of control | [3] 100 % of control and 98 % of control | [5] 98 % of control | [6] 93 % of control and 101 % of control | [8] 98 % of control | [9] 93 % of control and 95 % of control

COC(=O)C1C(=O)CCC2CN3CCc4c([nH]c5ccccc45)C3CC21 (configuration not stated)
inactive: [10] 94 % of control | [11] 100 % of control | [12] 90 % of control

CC1(C)N=C(N)N=C(N)N1c1ccc(CCCCc2ccc(S(=O)(=O)F)cc2)c(Cl)c1
inactive: endpoint: mean survival time, dose: 7.5 mg/kg/injection, schedule: Q01DX001 (ip), vehicle: saline 99 % of control | endpoint: mean survival time, dose: 7.5 mg/kg/injection, schedule: Q04DX003 (ip), vehicle: saline 104 % of control | endpoint: mean survival time, dose: 13.0 mg/kg/injection, schedule: Q01DX007 (ip), vehicle: saline with Tween-80 109 % of control | endpoint: mean survival time, dose: 15.0 mg/kg/injection, schedule: Q01DX001 (ip), vehicle: saline 99 % of control | endpoint: mean survival time, dose: 15.0 mg/kg/injection, schedule: Q04DX003 (ip), vehicle: saline 106 % of control | endpoint: mean survival time, dose: 20.0 mg/kg/injection, schedule: Q01DX007 (ip), vehicle: saline with Tween-80 116 % of control | endpoint: mean survival time, dose: 30.0 mg/kg/injection, schedule: Q01DX001 (ip), vehicle: saline 94 % of control | endpoint: mean survival time, dose: 30.0 mg/kg/injection, schedule: Q01DX007 (ip), vehicle: saline with Tween-80 122 % of control | endpoint: mean survival time, dose: 30.0 mg/kg/injection, schedule: Q04DX003 (ip), vehicle: saline 109 % of control | endpoint: mean survival time, dose: 45.0 mg/kg/injection, schedule: Q01DX007 (ip), vehicle: saline with Tween-80 95 % of control

O=C(CNC(=O)Nc1ccc(Cl)c(Cl)c1)N/N=C/c1cccc(F)c1
inactive: endpoint: mean survival time, dose: 50.0 mg/kg/injection, schedule: Q01DX009 (ip), vehicle: saline with Tween-80 96 % of control | endpoint: mean survival time, dose: 100.0 mg/kg/injection, schedule: Q01DX009 (ip), vehicle: saline with Tween-80 93 % of control | endpoint: mean survival time, dose: 200.0 mg/kg/injection, schedule: Q01DX009 (ip), vehicle: saline with Tween-80 89 % of control

COc1cc(NC(C)=O)c2ncccc2c1NC(C)=O
inactive: endpoint: mean survival time, dose: 50.0 mg/kg/injection, schedule: Q01DX001 (ip), vehicle: carboxymethylcellulose (CMC) 96 % of control | endpoint: mean survival time, dose: 100.0 mg/kg/injection, schedule: Q01DX001 (ip), vehicle: carboxymethylcellulose (CMC) 102 % of control | endpoint: mean survival time, dose: 200.0 mg/kg/injection, schedule: Q01DX001 (ip), vehicle: carboxymethylcellulose (CMC) 96 % of control | endpoint: mean survival time, dose: 400.0 mg/kg/injection, schedule: Q01DX001 (ip), vehicle: carboxymethylcellulose (CMC) 94 % of control

ClC(Cc1ccccc1)c1ccccc1 (configuration not stated)
inactive: endpoint: mean survival time, dose: 50.0 mg/kg/injection, schedule: Q01DX001 (ip), vehicle: saline 97 % of control | [1] 97 % of control | [4] 97 % of control | [7] 97 % of control

O=C(c1cccnc1)c1cc(-c2ccccn2)c(=O)n2ccccc12
inactive: endpoint: median survival time, dose: 25.0 mg/kg/injection, schedule: Q01DX009 (ip), vehicle: saline with Tween-80 100 % of control | endpoint: median survival time, dose: 50.0 mg/kg/injection, schedule: Q01DX009 (ip), vehicle: saline with Tween-80 108 % of control | endpoint: median survival time, dose: 100.0 mg/kg/injection, schedule: Q01DX009 (ip), vehicle: saline with Tween-80 91 % of control | endpoint: median survival time, dose: 200.0 mg/kg/injection, schedule: Q01DX009 (ip), vehicle: saline with Tween-80 95 % of control | endpoint: median survival time, dose: 400.0 mg/kg/injection, schedule: Q01DX009 (ip), vehicle: saline with Tween-80 91 % of control

O=C(O)C(CSC(c1ccccc1)c1ccccc1)N1C(=O)c2ccccc2C1=O (configuration not stated)
inactive: endpoint: mean survival time, dose: 75.0 mg/kg/injection, schedule: Q01DX009 (ip), vehicle: Klucel (hydroxypropylcellulose) (HPC) 102 % of control | endpoint: mean survival time, dose: 75.0 mg/kg/injection, schedule: Q04DX003 (ip), vehicle: Klucel (hydroxypropylcellulose) (HPC) 97 % of control | endpoint: mean survival time, dose: 150.0 mg/kg/injection, schedule: Q01DX009 (ip), vehicle: Klucel (hydroxypropylcellulose) (HPC) 98 % of control | endpoint: mean survival time, dose: 150.0 mg/kg/injection, schedule: Q04DX003 (ip), vehicle: Klucel (hydroxypropylcellulose) (HPC) 109 % of control | endpoint: mean survival time, dose: 300.0 mg/kg/injection, schedule: Q01DX009 (ip), vehicle: Klucel (hydroxypropylcellulose) (HPC) 104 % of control | endpoint: mean survival time, dose: 300.0 mg/kg/injection, schedule: Q04DX003 (ip), vehicle: Klucel (hydroxypropylcellulose) (HPC) 94 % of control

CC12CCC3c4ccc(OC(=O)c5ccc(N)cc5)cc4CCC3C1CCC2=O (configuration not stated)
inactive: [10] 110 % of control | [11] 106 % of control | [12] 95 % of control | endpoint: mean survival time, dose: 100.0 mg/kg/injection, schedule: Q01DX001 (sc), vehicle: steriod suspending solution 95 % of control | endpoint: mean survival time, dose: 200.0 mg/kg/injection, schedule: Q01DX001 (sc), vehicle: steriod suspending solution 97 % of control | endpoint: mean survival time, dose: 400.0 mg/kg/injection, schedule: Q01DX001 (sc), vehicle: steriod suspending solution 95 % of control

COc1ccc(C)cc1NC(=O)c1cccc(F)c1
inactive: endpoint: mean survival time, dose: 100.0 mg/kg/injection, schedule: Q01DX009 (ip), vehicle: Klucel (hydroxypropylcellulose) (HPC) 106 % of control | endpoint: mean survival time, dose: 200.0 mg/kg/injection, schedule: Q01DX009 (ip), vehicle: Klucel (hydroxypropylcellulose) (HPC) 101 % of control | endpoint: mean survival time, dose: 400.0 mg/kg/injection, schedule: Q01DX009 (ip), vehicle: Klucel (hydroxypropylcellulose) (HPC) 97 % of control

CNC(C#N)c1ccco1 (configuration not stated)
inactive: endpoint: mean survival time, dose: 6.25 mg/kg/injection, schedule: Q04DX003 (ip), vehicle: saline 102 % of control | endpoint: mean survival time, dose: 12.5 mg/kg/injection, schedule: Q04DX003 (ip), vehicle: saline 95 % of control | endpoint: mean survival time, dose: 50.0 mg/kg/injection, schedule: Q04DX003 (ip), vehicle: saline 94 % of control

CC(=O)NC(CCc1ccc(Cl)c(Cl)c1)c1cccc(O)c(=O)c1 (configuration not stated)
inactive: endpoint: median survival time, dose: 50.0 mg/kg/injection, schedule: Q01DX009 (ip), vehicle: Klucel (hydroxypropylcellulose) (HPC) 118 % of control | endpoint: median survival time, dose: 100.0 mg/kg/injection, schedule: Q01DX009 (ip), vehicle: Klucel (hydroxypropylcellulose) (HPC) 118 % of control
